Experimental data taken from PubChem BioAssay (NCI).
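All cell lines were grown in 96-well plates and treated with compound for 48 hours. TGI: total growth inhibition.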

Tests used:
Test in all cases: NCI-60 cell line screen, 48 h
[1] = system: OVCAR-5 ovarian
[2] = system: K-562 leukemia
[3] = system: RXF-631 renal
[4] = system: SF-295 CNS
[5] = system: HOP-62 NSCLC
[6] = system: RXF 393 renal
[7] = system: UACC-62 melanoma
[8] = system: SW-620 colon
[9] = system: SNB-75 CNS
[10] = system: MOLT-4 leukemia
[11] = system: SN12C renal
[12] = system: SF-268 CNS
[13] = system: KM20L2 colon
[14] = system: HOP-18 NSCLC
[15] = system: A549 NSCLC
[16] = system: OVCAR-4 ovarian
[17] = system: OVCAR-8 ovarian
[18] = system: NCI-H460 lung
[19] = system: SF-539 CNS
[20] = system: M19-MEL melanoma
[21] = system: SK-MEL-28 melanoma
[22] = system: LOX IMVI melanoma
[23] = system: SR leukemia
[24] = system: M14 melanoma
[25] = system: XF 498 CNS
[26] = system: SNB-78 CNS
[27] = system: SK-MEL-5 melanoma
[28] = system: ACHN renal
[29] = system: COLO 205 colon
[30] = system: DMS 114 small cell lung
[31] = system: NCI-H226 lung
[32] = system: CAKI-1 renal
[33] = system: U251 CNS
[34] = system: HCT-15 colon
[35] = system: UO-31 renal
[36] = system: HT29 colon
[37] = system: 786-0 renal
[38] = system: IGROV1 ovarian
[39] = system: EKVX NSCLC
[40] = system: HCC-2998 colon
[41] = system: NCI-H522 lung
[42] = system: SNB-19 CNS
[43] = system: MALME-3M melanoma
[44] = system: DMS 273 small cell lung
[45] = system: SK-MEL-2 melanoma
[46] = system: TK-10 renal
[47] = system: HCT-116 colon
[48] = system: NCI-H23 lung
[49] = system: DLD-1 colon
[50] = system: UACC-257 melanoma
[51] = system: KM12 colon
[52] = system: LXFL 529 NSCLC
[53] = system: HL-60(TB) leukemia
[54] = system: HOP-92 NSCLC
[55] = system: RPMI-8226 leukemia
[56] = system: OVCAR-3 ovarian
[57] = system: CCRF-CEM leukemia
[58] = system: SK-OV-3 ovarian

Compound: CC(=O)Oc1c(Br)ccc2cc(C(Br)Br)c(C(=O)c3ccccc3)nc12
- TGI [1]: 31.1 µM
- TGI [2]: 44.1 µM
- TGI [3]: 47.6 µM
- TGI [4]: 35.1 µM
- TGI [5]: 34.4 µM
- TGI [6]: 33.8 µM
- TGI [7]: 39.4 µM
- TGI [8]: 48.2 µM
- TGI [9]: 46 µM
- TGI [10]: 46.2 µM
- TGI [11]: 45.6 µM
- TGI [12]: 53.5 µM
- TGI [13]: 42.2 µM
- TGI [14]: 31.2 µM
- TGI [15]: 43.4 µM
- TGI [16]: 21.7 µM
- TGI [17]: 53 µM
- TGI [18]: 44.4 µM
- TGI [19]: 42.3 µM
- TGI [20]: 44.1 µM
- TGI [21]: 36.1 µM
- TGI [22]: 50.9 µM
- TGI [23]: 74.2 µM
- TGI [24]: 40.8 µM
- TGI [25]: 36.1 µM
- TGI [26]: 71.4 µM
- TGI [27]: 38.7 µM
- TGI [28]: 44.3 µM
- TGI [29]: 52.7 µM
- TGI [30]: 49.6 µM
- TGI [31]: 40.2 µM
- TGI [32]: 12.9 µM
- TGI [33]: 36.3 µM
- TGI [34]: 44.2 µM
- TGI [35]: 35.9 µM
- TGI [36]: 40.1 µM
- TGI [37]: 46.9 µM
- TGI [38]: 76.5 µM
- TGI [39]: 39.4 µM
- TGI [40]: 32.6 µM
- TGI [41]: 14.8 µM
- TGI [42]: 39.1 µM
- TGI [43]: 51 µM
- TGI [44]: 42.3 µM
- TGI [45]: 48.2 µM
- TGI [46]: 31.9 µM
- TGI [47]: 42.9 µM
- TGI [48]: 37.5 µM
- TGI [49]: 51.5 µM
- TGI [50]: 8.87 µM
- TGI [51]: 37.1 µM
- TGI [52]: 52.3 µM

Compound: O=C(N/C=C/C=C/Sc1ccccc1)OCc1ccccc1
- TGI [1]: 33.1 µM
- TGI [2]: > 100 µM
- TGI [3]: 39.3 µM
- TGI [4]: 35.4 µM
- TGI [5]: 49.2 µM
- TGI [6]: 35.6 µM
- TGI [7]: 29.9 µM
- TGI [8]: 32.8 µM
- TGI [9]: 42.4 µM
- TGI [10]: > 100 µM
- TGI [11]: 31.6 µM
- TGI [12]: 34.2 µM
- TGI [13]: 31 µM
- TGI [53]: > 100 µM
- TGI [14]: 65 µM
- TGI [15]: 59.8 µM
- TGI [16]: 57 µM
- TGI [17]: 29.5 µM
- TGI [18]: 57 µM
- TGI [19]: 30.4 µM
- TGI [20]: 31.5 µM
- TGI [21]: 34.3 µM
- TGI [22]: 32 µM
- TGI [23]: > 100 µM
- TGI [54]: 52.7 µM
- TGI [55]: > 100 µM
- TGI [24]: 32.9 µM
- TGI [25]: 43.9 µM
- TGI [26]: > 100 µM
- TGI [27]: 31.6 µM
- TGI [28]: 68.9 µM
- TGI [29]: 31.6 µM
- TGI [30]: 32.3 µM
- TGI [31]: 41.3 µM
- TGI [56]: 32 µM
- TGI [32]: 37.2 µM
- TGI [33]: 34 µM
- TGI [34]: 36.2 µM
- TGI [57]: > 100 µM
- TGI [35]: 42 µM
- TGI [36]: 31.9 µM
- TGI [37]: 31 µM
- TGI [38]: 42.1 µM
- TGI [39]: 53.6 µM
- TGI [40]: 42.8 µM
- TGI [41]: 29.7 µM
- TGI [42]: > 100 µM
- TGI [44]: 31.4 µM
- TGI [46]: 64.7 µM
- TGI [47]: 38.1 µM
- TGI [48]: 48.9 µM
- TGI [49]: 29 µM
- TGI [50]: 39.5 µM
- TGI [51]: 36.1 µM
- TGI [52]: 32.5 µM
- TGI [58]: 64.6 µM
